Laboratory results: US12590106B2, “Spiromacrocyclic orexin 2 receptor agonists” (H. Lundbeck A/S, priority 2023, dated 2026)

Biological target: T1, human Ox2R (Homo sapiens, UniProt O43614)
T1 construct: The gene encoding hOx2R was subcloned into the expression plasmid pcDNA5/FRT/TO; expressed in transfected cells; host or cells: CHO Flp-In cells (pcDNA5/FRT/TO with pOG44 Flp recombinase vector, hygromycin B selection)
T1 sequence (O43614 1-444): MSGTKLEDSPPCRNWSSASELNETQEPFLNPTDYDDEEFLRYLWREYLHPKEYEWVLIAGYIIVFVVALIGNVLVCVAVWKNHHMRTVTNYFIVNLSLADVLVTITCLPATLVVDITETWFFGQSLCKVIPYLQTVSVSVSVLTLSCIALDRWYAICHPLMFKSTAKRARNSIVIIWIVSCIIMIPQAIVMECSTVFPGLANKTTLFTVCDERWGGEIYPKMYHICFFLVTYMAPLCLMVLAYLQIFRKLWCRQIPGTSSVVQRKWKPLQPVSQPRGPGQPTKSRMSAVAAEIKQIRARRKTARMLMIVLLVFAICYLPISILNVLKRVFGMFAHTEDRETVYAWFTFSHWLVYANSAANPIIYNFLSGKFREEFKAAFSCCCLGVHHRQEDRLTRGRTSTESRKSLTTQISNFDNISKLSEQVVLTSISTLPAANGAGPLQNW
Experiment: Measurement of OX2R agonist activity (cell-based calcium release assay)
Settings: hOx2R-CHO Flp-In cells, n≥2 tests; for EC50: intracellular calcium, read-out: EC50; for Emax: normalized to assay buffer (0%) and 10 μM Danavorexton (100%), read-out: Emax (%)
Text: Measurement of OX2R Agonist Activity
The Ox2R has a broad signaling profile and couple to a range of different Gα-proteins. The cell-based calcium release assay is primarily assessing signaling through the Gαq signaling pathway, which promotes calcium mobilization via inositol triphosphate production upon activation of Ox2R.
A CHO Flp-In cell-line stably expressing the human Ox2R (hOx2R-CHO Flp-In) was established as follows: The gene encoding hOx2R was subcloned into the expression plasmid pcDNA5/FRT/TO and then transfected into CHO Flp-In cells together with the Flp recombinase vector, pOG44. Cells were cultured in growth medium: Ham's F12 (Gibco), 10% fetal bovine serum (Gibco) and 100 U/mL penicillin-streptomycin (Gibco) supplemented with hygromycin B (Thermo Fisher Scientific) as selection marker at 37° C. in the presence of 5% CO2.
To prepare the hOx2R-CHO FlpIn cells for calcium release assay, the cells were suspended in growth medium and seeded in black, clear-bottomed 384-well plates (Corning) at 10,000 cells/well. The plated cells were grown overnight at 37° C. and 5% CO2. The following day, the media was removed, and the cells were incubated with assay buffer (HBSS with 20 mM HEPES, pH 7.4) containing 2.5 mM probenecid (Thermo Fisher Scientific), 10 mM CaCl2, 0.1% pluronic F68 (Gibco) and 1× calcium-4 dye (Molecular Devices) for 1 h at 37° C. and 5% CO2. After incubation, cells were allowed to equilibrate at room temperature for 15 minutes and then loaded into FDSS7000Ex system (Hamamatsu Photonics) together with a plate containing test compounds serially diluted in assay buffer. Cells were stimulated with test compounds (online injection) and the agonist activity was determined as an increase in intracellular calcium concentration measured from the ratio of fluorescence emission at 542 nm by excitation at 480 nm. The agonist response for each applied concentration was assessed as the ratio: maximum fluorescence/average pre-stimulated fluorescence and was normalized to responses from assay buffer alone (0% response) and 10 μM Danavorexton (100% response). EC50 and Emax values were calculated from concentration-response curves by using Genedata Screener software.

| Structure (SMILES) | EC50 [nM] | Emax [%] |
| --- | --- | --- |
| CS(=O)(=O)N[C@H]1CC[C@@]2(CO[C@H]3CC[C@H](CC3)c3cccc(c3)OCCc3coc2n3)C1 [Example 70, N-[(1s,1′S,14R,17s)-spiro[7,12,16-trioxa-22-azatetracyclo[15.2.2.12,6.110,13]tricosa-2,4,6(23),10,13(22)-pentaene-14,3′-cyclopentane]-1′-yl]methanesulfonamide] | 1.8 | 98 |
| CS(=O)(=O)N[C@H]1CC[C@@]2(COCCc3cccc(c3)OCc3coc2n3)C1 [Example 40, N-[(1′S,8S)-spiro[2,6,10-trioxa-18-azatricyclo[11.3.1.14,7]octadeca-1(17),4,7(18),13,15-pentaene-8,3′-cyclopentane]-1′-yl]methanesulfonamide] | 1700 | 94 |
| Cc1cccc2c1OCc1coc(n1)[C@]1(CC[C@H](NS(C)(=O)=O)C1)Cc1ccc(F)c-2c1 [Example 37, N-[(1′S,14R)-19-fluoro-6-methyl-spiro[8,12-dioxa-21-azatetracyclo[14.3.1.110,13.02,7]henicosa-1(19),2,4,6,10,13(21),16(20),17-octaene-14,3′-cyclopentane]-1′-yl]methanesulfonamide] | 1.1 | 96 |
| CS(=O)(=O)N[C@H]1CC[C@@]2(COCCCc3cccc(c3)OCc3coc2n3)C1 [Example 67, N-[(1S,8S)-spiro[2,6,10-trioxa-19-azatricyclo[12.3.1.14,7]nonadeca-1(18),4,7(19),14,16-pentaene-8,3′-cyclopentane]-1′-yl]methanesulfonamide] | 1200 | 94 |
| CS(=O)(=O)N[C@H]1CC[C@@]2(CO[C@H]3CC[C@H](CC3)c3ncccc3OCc3coc2n3)C1 [Example 66, N-[(1s,1′S,14R,17s)-spiro[8,12,16-trioxa-3,22-diazatetracyclo[15.2.2.110,13.02,7]docosa-2,4,6,10,13(22)-pentaene-14,3′-cyclopentane]-1′-yl]methanesulfonamide] | 81 | 94 |
| CS(=O)(=O)NC1CCC2(C1)c1nc(co1)COc1c(F)cccc1-c1cc(ccc1F)C2F (single isomer, unassigned) [Example 77, N-[(1′S,14R,15S or 15R)-6,15,19-trifluorospiro[8,12-dioxa-21-azatetracyclo[14.3.1.110,13.02,7]henicosa-1(19),2,4,6,10,13(21),16(20),17-octaene-14,3′-cyclopentane]-1′-yl]methanesulfonamide] | 1.4 | 99 |
| CS(=O)(=O)N[C@H]1CC[C@@]2(Cc3cc(ncc3F)-c3cccc(F)c3OCc3coc2n3)C1 [Example 105, N-[(1′S,14R)-6,17-difluorospiro[8,12-dioxa-19,21-diazatetracyclo[14.3.1.110,13.02,7]henicosa-1(20),2,4,6,10,13(21),16,18-octaene-14,3′-cyclopentane]-1′-yl]methanesulfonamide] | 6.1 | 97 |
| CS(=O)(=O)N[C@H]1CC[C@@]2(CO[C@H]3C[C@H](C3)c3ccccc3OCc3coc2n3)C1 [Example 72, N-[(1′S,10r,12s,15S)-spiro[3,13,17-trioxa-19-azatetracyclo[14.2.1.110,12.04,9]icosa-1(18),4,6,8,16(19)-pentaene-15,3′-cyclopentane]-1′-yl]methanesulfonamide] | 190 | 97 |
| CS(=O)(=O)N[C@H]1CC[C@@]2(Cc3cccc(c3)-c3cccnc3OCc3coc2n3)C1 [Example 9, N-[(1′S,14R)-spiro[8,12-dioxa-6,21-diazatetracyclo[14.3.1.110,13.02,7]henicosa-1(20),2,4,6,10,13(21),16,18-octaene-14,3′-cyclopentane]-1′-yl]methanesulfonamide] | 10 | 98 |
| CS(=O)(=O)N[C@H]1CC[C@@]2(CO[C@H]3CC[C@H](CC3)c3nccc(n3)OCc3coc2n3)C1 [Example 1, N-[(1s,1′S,13S,16s)-spiro[7,11,15-trioxa-3,21,22-triazatetracyclo[14.2.2.12,6.19,12]docosa-2,4,6(22),9,12(21)-pentaene-13,3′-cyclopentane]-1′-yl]methanesulfonamide] | 9.7 | 98 |
| CS(=O)(=O)N[C@H]1CC[C@@]2(Cc3cc(c(F)cn3)-c3cccc(F)c3OCc3coc2n3)C1 [Example 106, N-[(1′S,14S)-6,19-difluorospiro[8,12-dioxa-17,21-diazatetracyclo[14.3.1.110,13.02,7]henicosa-1(20),2,4,6,10,13(21),16,18-octaene-14,3′-cyclopentane]-1′-yl]methanesulfonamide] | 26 | 98 |

These reach a lower EC50. Values come first.

| EC50 [nM] | Emax [%] | Structure (SMILES) |
| --- | --- | --- |
| 0.37 | 97 | O=S(=O)(N[C@H]1CC[C@@]2(Cc3ccc(F)c(c3)-c3cccc(F)c3OCc3coc2n3)C1)C(F)F [Example 115, N-[(1′S,14R)-6,19-difluorospiro[8,12-dioxa-21-azatetracyclo[14.3.1.110,13.02,7]henicosa-1(20),2,4,6,10,13(21),16,18-octaene-14,3′-cyclopentane]-1′-yl]-1,1-difluoro-methanesulfonamide] |
| 0.22 | 96 | CS(=O)(=O)N[C@H]1CC[C@@]2(Cc3cc(ccc3F)-c3cccc(F)c3OCc3coc2n3)C1 [Example 17, N-[(1′S,14R)-6,17-difluorospiro[8,12-dioxa-21-azatetracyclo[14.3.1.110,13.02,7]henicosa-1(19),2,4,6,10,13(21),16(20),17-octaene-14,3′-cyclopentane]-1′-yl]methanesulfonamide] |
| 0.87 | 99 | CS(=O)(=O)N[C@H]1C[C@@]2(Cc3ccc(F)c(c3)-c3cccc(F)c3OCc3coc2n3)C1 [Example 98, trans-N-(6,19-difluorospiro[8,12-dioxa-21-azatetracyclo[14.3.1.110,13.02,7]henicosa-1(20),2,4,6,10,13(21),16,18-octaene-14,3′-cyclobutane]-1′-yl)methanesulfonamide] |
| 0.45 | 98 | CS(=O)(=O)N[C@H]1CC[C@]2(CC1)Cc1ccc(F)c(c1)-c1cccc(F)c1OCc1ccnc2n1 [Example 108, trans-N-(6,20-difluorospiro[8-oxa-13,22-diazatetracyclo[15.3.1.110,14.02,7]docosa-1(21),2,4,6,10,12,14(22),17,19-nonaene-15,4′-cyclohexane]-1′-yl)methanesulfonamide] |
| 0.69 | 100 | CS(=O)(=O)N[C@H]1CC[C@@]2(CO[C@H]3CC[C@H](CC3)c3cccnc3OCc3coc2n3)C1 [Example 43, N-[(1s,1′S,14R,17s)-spiro[8,12,16-trioxa-6,22-diazatetracyclo[15.2.2.110,13.02,7]docosa-2,4,6,10,13(22)-pentaene-14,3′-cyclopentane]-1′-yl]methanesulfonamide] |
| 0.26 | 99 | CS(=O)(=O)N[C@H]1CC[C@@]2(Cc3ccc(Cl)c(c3)-c3cc(F)cc(F)c3OCc3coc2n3)C1 [Example 76, N-[(1′S,14R)-19-chloro-4,6-difluoro-spiro[8,12-dioxa-21-azatetracyclo[14.3.1.110,13.02,7]henicosa-1(19),2,4,6,10,13(21),16(20),17-octaene-14,3′-cyclopentane]-1′-yl]methanesulfonamide] |
| 0.82 | 96 | Cc1ccc2cc1-c1cccc(F)c1OCc1coc(n1)[C@]1(CC[C@H](NS(C)(=O)=O)C1)C2 [Example 22, N-[(1′S,14R)-6-fluoro-19-methyl-spiro[8,12-dioxa-21-azatetracyclo[14.3.1.110,13.02,7]henicosa-1(19),2,4,6,10,13(21),16(20),17-octaene-14,3′-cyclopentane]-1′-yl]methanesulfonamide] |
